Laboratory results reported in PubChem BioAssay (NCI).
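Results reflect a 48-hour exposure of cells in 96-well plates to compound at five concentrations. GI50: concentration for 50% inhibition of growth. Definition used: TGI = concentration required for complete inhibition of growth.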

Columns and labels:
Test in all cases: NCI-60 cell line screen, 48 h
[1] = test system: HCT-15 colon
[2] = test system: NCI-H522 lung
[3] = test system: NCI-H23 lung
[4] = test system: DU-145 prostate
[5] = test system: CAKI-1 renal
[6] = test system: M14 melanoma
[7] = test system: PC-3 prostate
[8] = test system: UACC-257 melanoma
[9] = test system: EKVX NSCLC
[10] = test system: COLO 205 colon
[11] = test system: HCC-2998 colon
[12] = test system: U251 CNS
[13] = test system: NCI/ADR-RES ovarian
[14] = test system: MDA-MB-435
[15] = test system: SNB-19 CNS
[16] = test system: T-47D breast
[17] = test system: NCI-H226 lung
[18] = test system: OVCAR-5 ovarian
[19] = test system: CCRF-CEM leukemia
[20] = test system: HOP-92 NSCLC
[21] = test system: SF-268 CNS
[22] = test system: OVCAR-3 ovarian
[23] = test system: IGROV1 ovarian
[24] = test system: HOP-62 NSCLC
[25] = test system: BT-549 breast
[26] = test system: MDA-MB-231 breast
[27] = test system: MOLT-4 leukemia
[28] = test system: UO-31 renal
[29] = test system: SK-OV-3 ovarian
[30] = test system: SF-295 CNS
[31] = test system: A549 NSCLC
[32] = test system: A498 renal
[33] = test system: SF-539 CNS
[34] = test system: RXF 393 renal
[35] = test system: HT29 colon
[36] = test system: UACC-62 melanoma
[37] = test system: ACHN renal
[38] = test system: TK-10 renal
[39] = test system: SK-MEL-28 melanoma
[40] = test system: OVCAR-4 ovarian
[41] = test system: KM12 colon
[42] = test system: 786-0 renal
[43] = test system: HL-60(TB) leukemia
[44] = test system: RPMI-8226 leukemia
[45] = test system: SR leukemia
[46] = test system: K-562 leukemia
[47] = test system: SN12C renal
[48] = test system: HS 578T breast
[49] = test system: LOX IMVI melanoma
[50] = test system: SK-MEL-5 melanoma
[51] = test system: HCT-116 colon
[52] = test system: MALME-3M melanoma
[53] = test system: OVCAR-8 ovarian
[54] = test system: SW-620 colon
[55] = test system: NCI-H460 lung
[56] = test system: SNB-75 CNS
[57] = test system: SK-MEL-2 melanoma
[58] = test system: MCF7 breast

Compound: Nc1ncc(-c2ccc3ncnc(N4CCc5cc(F)c(Cl)cc54)c3c2)cc1CO
- GI50 [1]: 798 nM
- TGI [1]: 5.25 µM
- GI50 [2]: 419 nM
- TGI [2]: 3.02 µM
- GI50 [3]: 803 nM
- TGI [3]: 3.72 µM
- GI50 [4]: 619 nM
- TGI [4]: > 41.8 µM
- GI50 [5]: 282 nM
- TGI [5]: 3.76 µM
- GI50 [6]: 543 nM
- TGI [6]: 3.9 µM
- GI50 [7]: 343 nM
- TGI [7]: 25.1 µM
- GI50 [8]: 644 nM
- TGI [8]: 4.31 µM
- GI50 [9]: 259 nM
- TGI [9]: 1930 nM
- GI50 [10]: 1170 nM
- TGI [10]: 2820 nM
- GI50 [11]: 1200 nM
- TGI [11]: 5.12 µM
- GI50 [12]: 1430 nM
- TGI [12]: 7.95 µM
- GI50 [13]: 1660 nM
- TGI [13]: 9.1 µM
- GI50 [14]: 418 nM
- TGI [14]: 1990 nM
- GI50 [15]: 1430 nM
- TGI [15]: 12.9 µM
- GI50 [16]: 169 nM
- TGI [16]: 936 nM
- GI50 [17]: 570 nM
- TGI [17]: 9.14 µM
- GI50 [18]: 422 nM
- TGI [18]: 12.1 µM
- GI50 [19]: 1580 nM
- TGI [19]: 11.2 µM
- GI50 [20]: 115 nM
- TGI [20]: 1530 nM
- GI50 [21]: 663 nM
- TGI [21]: 7.89 µM
- GI50 [22]: 468 nM
- TGI [22]: 4.84 µM
- GI50 [23]: 178 nM
- TGI [23]: 724 nM
- GI50 [24]: 776 nM
- TGI [24]: 5.12 µM
- GI50 [25]: 321 nM
- TGI [25]: 2050 nM
- GI50 [26]: 697 nM
- TGI [26]: 6.54 µM
- GI50 [27]: 525 nM
- TGI [27]: 4.72 µM
- GI50 [28]: 154 nM
- TGI [28]: 5 µM
- GI50 [29]: 451 nM
- TGI [29]: 2820 nM
- GI50 [30]: 453 nM
- TGI [30]: 3.17 µM
- GI50 [31]: 522 nM
- TGI [31]: 3.21 µM
- GI50 [32]: 110 nM
- TGI [32]: 611 nM
- GI50 [33]: 1270 nM
- TGI [33]: 4.45 µM
- GI50 [34]: 318 nM
- TGI [34]: 1170 nM
- GI50 [35]: 950 nM
- TGI [35]: 10.2 µM
- GI50 [36]: 266 nM
- TGI [36]: 1610 nM
- GI50 [37]: 365 nM
- TGI [37]: 20.5 µM
- GI50 [38]: 231 nM
- TGI [38]: 2030 nM
- GI50 [39]: 393 nM
- TGI [39]: 5.21 µM
- GI50 [40]: 615 nM
- TGI [40]: 5.23 µM
- GI50 [41]: 1650 nM
- TGI [41]: 8.23 µM
- GI50 [42]: 474 nM
- TGI [42]: 5 µM
- GI50 [43]: 1070 nM
- TGI [43]: 4.5 µM
- GI50 [44]: 395 nM
- TGI [44]: 3.72 µM
- GI50 [45]: 475 nM
- TGI [45]: 4.66 µM
- GI50 [46]: 887 nM
- TGI [46]: > 23.2 µM
- GI50 [47]: 435 nM
- TGI [47]: 11.2 µM
- GI50 [48]: 404 nM
- TGI [48]: 2940 nM
- GI50 [49]: 747 nM
- TGI [49]: 3.94 µM
- GI50 [50]: 838 nM
- TGI [50]: 2200 nM
- GI50 [51]: 1260 nM
- TGI [51]: 5.02 µM
- GI50 [52]: 186 nM
- TGI [52]: 1420 nM
- GI50 [53]: 883 nM
- TGI [53]: 10.4 µM
- GI50 [54]: 1640 nM
- TGI [54]: 9.48 µM
- GI50 [55]: 413 nM
- TGI [55]: 3.56 µM
- GI50 [56]: 50.6 nM
- TGI [56]: 1110 nM
- GI50 [57]: 1090 nM
- TGI [57]: 2890 nM
- GI50 [58]: 210 nM
- TGI [58]: 2520 nM
